Results on four compounds are retold here after US20120100609A1, “N-LINKED GLYCAN BIOSYNTHESIS MODULATORS” (priority 2009, published 2012).

SMILES strings stand for the structures.

The experiment concerns N-linked glycans of CHO cells. Kind of experiment: N-glycan profiling of treated CHO cells by normal phase HPLC (PNGaseF release, 2AB label). The experiment is classed as cell-based, Chinese Hamster. To be noted: CHO cells treated with compound, doses in uM. Here is the method:
N-linked glycans were purified from CHO cell cultures and different N-linked glycan structural peaks were separated by normal phase HPLC. For the analyses, cultured CHO cells were treated with and without the test compounds as described above and then harvested for N-glycan profiling. The spent medium was decanted and the cells were rinsed 3 times with PBS and detached with 5 mM EDTA/PBS. N-glycans were released from cells using PNGaseF (Prozyme, Cat# GKE-5006) as described by the manufacture. Released glycans were labeled with […] (2AB) (Sigma, Cat# A89804) as described by the manufacture. Non-incorporated 2AB was removed using a Discovery DPA-6S column. Briefly, the column was pre-equilibrated 2× with 1 ml 97% ACN. Samples were loaded by adding 1 ml 97% acetonitrile (ACN) to the reaction mix. The column was washed 4× with 1 ml 97% CAN. 2AB-labeled N-glycans were then eluted 2× with 0.6 ml water, dried in a vacuum centrifuge, resuspended and then analyzed by normal phase HPLC(NP-HPLC). Analogous experiments were run with Castanospermine for comparison. The results are illustrated in FIGS. 23-30. Purified 2AB-N-glycans were separated (NP-HPLC) on a 4.6×250 mm TSK Gel-Amide-80 column (Tosoh Bioscience). A gradient was run from 70% A to 50% A over 40 min at a flow rate of 1.2 ml/min (Solvent A: Acetonitrile, Solvent B: 50 mM ammonium formate pH4.4). Glucose units were determined based on 2AB-labeled glucose oligomer ladder (Prozyme). 2AB-labeled N-glycan standards (Prozyme) were run and assigned glucose units.
`COc1ccc(CN/C=C2\C(=O)N(c3nc4ccccc4s3)N=C2c2ccccc2)cc1` [compound 11]: the “specific N-linked glycan peaks of the HPLC profile (peak areas as % of the untreated Cntr peak area)” value was “increases and decreases of specific peaks”.
For `Cc1ccc(NC(=O)c2c(NC(=O)c3cccnc3)sc3c2CCC3)cc1` [compound 10, N-(3-(p-tolylcarbamoyl)-5,6-dihydro-4H-cyclopenta[b]thiophen-2-yl)nicotinamide], the “specific N-linked glycan peaks of the HPLC profile (peak areas as % of the untreated Cntr peak area)” value is “increases and decreases of specific peaks”.
Take `CCOc1cc(/C=C(\C#N)c2n[nH]c(N)c2C#N)ccc1O` [compound 12, (Z)-5-amino-3-(1-cyano-2-(3-ethoxy-4-hydroxyphenyl)vinyl)-1H-pyrazole-4-carbonitrile]: the “specific N-linked glycan peaks of the HPLC profile (peak areas as % of the untreated Cntr peak area)” value is “increases and decreases of specific peaks”.
Under `O[C@H]1[C@H](O)[C@@H](O)CN2CC[C@H](O)[C@H]12` [Castanospermine, reference compound] stands “N-glycan Profile Changes”.
